Key:
[1] = test system: human colon cancer cell LoVo; assay: Proliferation of LoVo cells, MTT assay; format: cell-based; settings: 96 h, 4 days treatment, read-out: IC50 (inhibition of proliferation of LoVo)
Method: Newly revived LoVo cells (purchased from Shanghai Cell Institute) were cultured and passaged for at least three generations before use. Cells were used at 90% confluence for experiment. Cells were digested with trypsinase and centrifuged at 800 rpm for 5 minutes and the supernatant was discarded. The cell pellets were resuspended in fresh RPMI1640 medium and counted. Cells were seeded on 96-well cell culture plates at 5000 cells/well and incubated overnight at 37° C., 5% CO2. The stock solutions of the test substances (including the test compounds and the reference compound) were serially diluted to 8 concentrations with DMSO at a ratio of 1:3. 5 μL of each series diluted solutions was added to 120 μL of medium (diluted by 25 times) and mixed by shaking. […] The cell culture plates were returned to incubator at 37° C. and 5% CO2 for 4 days. At the end of treatment, the cell viability was determined by MTT colorimetric assay. Cell culture medium in each well was replaced by 100 μL/well of serum-free DMEM medium containing MTT (0.5 mg/mL), and the culture was continued for additional 4 hours. Medium was then discarded and 100 μL/well of DMSO was added.
(§1) Data was analyzed by GraphPad Prism 6.0. The inhibitory effects of compounds on cell proliferation were plotted based on cell viability vs. the logarithm of compound concentration. Cell viability %=(ODcompound−ODbackground)/(ODDMSO−ODbackground)×100.

[2] = biological target: T1, CHK1 kinase (Homo sapiens, UniProt O14757); assay: CHK1 kinase inhibition, ADP-Glo kinase assay; format: biochemical; settings: ATP 10 μM, CHK1 1 ng/well; for IC50: read-out: IC50 (inhibitory effect on CHK1 kinase activity); for inhibition at 0.01 µM: compound concentration 10 nM, read-out: Inh % (inhibitory effect on CHK1 kinase activity)
T1 construct: purchased Promega V1941
T1 sequence (O14757 1-476): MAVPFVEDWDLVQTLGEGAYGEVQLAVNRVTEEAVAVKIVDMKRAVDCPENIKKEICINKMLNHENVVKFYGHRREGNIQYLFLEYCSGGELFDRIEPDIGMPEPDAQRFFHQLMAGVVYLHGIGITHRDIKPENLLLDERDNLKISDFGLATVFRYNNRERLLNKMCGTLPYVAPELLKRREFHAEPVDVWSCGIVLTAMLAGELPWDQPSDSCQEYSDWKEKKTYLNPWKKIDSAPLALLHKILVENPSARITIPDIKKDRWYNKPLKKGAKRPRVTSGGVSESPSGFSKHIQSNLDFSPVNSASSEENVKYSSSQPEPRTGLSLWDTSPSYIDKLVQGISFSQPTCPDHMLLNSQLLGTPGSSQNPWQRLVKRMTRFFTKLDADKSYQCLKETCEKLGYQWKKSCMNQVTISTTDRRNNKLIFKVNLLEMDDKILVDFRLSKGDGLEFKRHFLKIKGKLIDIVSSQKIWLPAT
Method: 2 μL of kinase CHK1 (#V1941, Promega), 1 μL of compound diluted with buffer, and 2 μL of ATP substrate was successively added to a 384-well plate (final concentration of CHK1 was 1 ng/well, ATP was 10 μM). The positive control wells contained CHK1, ATP and DMSO whereas the negative control wells contained ATP, DMSO without enzyme. The mixtures were centrifuged at 1000 rpm for 1 minute and kept in darkness at room temperature for 1 hour to react. Then, 5 μL of ADP-Glo reagent was added to each well and incubated at room temperature for 40 minutes. At the end of incubation, 10 μL of kinase detection reagent was added to each well, and the relative chemiluminescence values (RLU) were measured on Varioskan® Flash (Thermo). The following calculation was performed: Inhibition rate %=(RLU of positive control−RLU of compound)/(RLU of positive control−RLU of negative control)×100. Data were analyzed using GraphPad Prism6.0 and fitted using the curve equation: Y=Bottom+(Top-Bottom)/(1+10^((Log IC50−X)*HillSlope)), and IC50 values were calculated.

[3] = test system: human breast cancer cell HCC1806; assay: Proliferation of HCC1806 cells, MTT assay; format: cell-based; settings: HCC1806, 72 h, 3 days treatment, read-out: IC50 (inhibition of proliferation of HCC1806)
Method: Newly revived HCC1806 cells (purchased from Guangzhou Genio) were cultured and passaged for at least three generations before use. Cells were used at 90% confluency for experiments. Cells were digested with trypsinase and centrifuged at 800 rpm for 5 minutes. The cell pellets were resuspended in fresh RPMI1640 medium and cells were counted. Cells were seeded on 96-well cell culture plates at 2000 cells/well and incubated overnight at 37° C., 5% CO2. The stock solutions of the test substances (including the test compounds and the reference compound) were serially diluted to 8 concentrations with DMSO at a ratio of 1:3. Five μL of each of the serially diluted solutions were added to 120 μL of medium (diluted by 25 times) and mixed by shaking. […] The cell culture plates were returned to incubator at 37° C., 5% CO2 for 3 days. At the end of treatment the cell viability was determined by MTT colorimetric assay. Cell culture medium in each well was replaced by 100 μL/well of serum-free fresh medium containing MTT (0.5 mg/mL), and the culture was continued for additional 4 hours.
as §1

Structure (SMILES) | IC50 [1] [nM] | IC50 [2] [nM] | IC50 [3] [nM] | inhibition at 0.01 µM [2] [%]
COc1cc(Br)cc(OC[C@H]2CCNC2)c1-c1cc(Nc2cnc(C#N)cn2)n[nH]1 [Example 70, (S)-5-((5-(4-bromo-2-methoxy-6-(pyrrolidin-3-ylmethoxy)phenyl)-1H-pyrazol-3-yl)amino)pyrazine-2-carbonitrile] | 3.6 | 1.16 | 4.9 | –
N#Cc1cnc(Nc2cc(-c3c(F)cccc3OC[C@@H]3CNCCO3)[nH]n2)cn1 [Example 55, (S)-5-((5-(2-fluoro-6-(morpholin-2-ylmethoxy)phenyl)-1H-pyrazol-3-yl)amino)pyrazine-2-carbonitrile] | 153 | – | 315 | 82
CCOc1cccc(OC[C@H]2CCCNC2)c1-c1cc(Nc2cnc(C#N)cn2)n[nH]1 [Example 35, (S)-5-((5-(2-ethoxy-6-(piperidin-3-ylmethoxy)phenyl)-1H-pyrazol-3-yl)amino)pyrazine-2-carbonitrile] | 21.2 | 1.78 | 21.6 | –
COc1cc(F)cc(OC[C@H]2CCNC2)c1-c1cc(Nc2cnc(C#N)cn2)n[nH]1 [Example 39, (S)-5-((5-(4-fluoro-2-methoxy-6-(pyrrolidin-3-ylmethoxy)phenyl)-1H-pyrazol-3-yl)amino)pyrazine-2-carbonitrile] | 1 | 0.2 | 1 | –
COc1cccc(OC[C@H]2CCCOC2)c1-c1cc(Nc2cnc(C#N)cn2)n[nH]1 [Example 34, (S)-5-((5-(2-methoxy-6-((tetrahydro-2H-pyran-3-yl)methoxy)phenyl)-1H-pyrazol-3-yl)amino)pyrazine-2-carbonitrile] | 64.9 | – | 102 | 69
COc1c(F)ccc(OC[C@H]2CCCNC2)c1-c1cc(Nc2cnc(C#N)cn2)n[nH]1 [Example 37, (S)-5-((5-(3-fluoro-2-methoxy-6-(piperidin-3-ylmethoxy)phenyl)-1H-pyrazol-3-yl)amino)pyrazine-2-carbonitrile] | 28.8 | 0.77 | 30.5 | –
COc1cccc(OC[C@H]2CCCNC2)c1-c1cc(Nc2cnc(C#N)c(C)n2)n[nH]1 [Example 28, (S)-5-((5-(2-methoxy-6-(piperidin-3-ylmethoxy)phenyl)-1H-pyrazol-3-yl)amino)-3-methylpyrazine-2-carbonitrile] | 42.5 | 0.3 | 42.2 | –
Cc1cc(F)c(-c2cc(Nc3cnc(C#N)cn3)n[nH]2)c(OC[C@H]2CCCNC2)c1 [Example 63, (S)-5-((5-(2-fluoro-4-methyl-6-(piperidin-3-ylmethoxy)phenyl)-1H-pyrazol-3-yl)amino)pyrazine-2-carbonitrile] | 40.2 | 1.66 | 52.6 | –
CCc1cc(OC)c(-c2cc(Nc3cnc(C#N)cn3)n[nH]2)c(OC[C@H]2CCCNC2)c1 [Example 75, (S)-5-((5-(4-ethyl-2-methoxy-6-(piperidin-3-ylmethoxy)phenyl)-1H-pyrazol-3-yl)amino)pyrazine-2-carbonitrile] | 3.2 | – | 3.1 | –
COc1cc(F)cc(OC[C@@H]2CNCCS2)c1-c1cc(Nc2cnc(C#N)cn2)n[nH]1 [Example 77-A, (S)-5-((5-(4-fluoro-2-methoxy-6-(thiomorpholin-2-ylmethoxy)phenyl)-1H-pyrazol-3-yl)amino)pyrazine-2-carbonitrile] | 3.1 | – | 3.6 | –
COc1cc(F)cc(OCC2CNCCC2(C)C)c1-c1cc(Nc2cnc(C#N)cn2)n[nH]1 (stereo not shown) [Example 50, 5-((5-(2-((4,4-dimethylpiperidin-3-yl)methoxy)-4-fluoro-6-methoxyphenyl)-1H-pyrazol-3-yl)amino)pyrazine-2-carbonitrile] | 35.2 | – | 26.8 | –
COc1cccc(OC[C@H]2CCCNC2)c1-c1cc(Nc2ncc(C#N)nc2C)n[nH]1 [Example 29, (S)-5-((5-(2-methoxy-6-(piperidin-3-ylmethoxy)phenyl)-1H-pyrazol-3-yl)amino)-6-methylpyrazine-2-carbonitrile] | > 1000 | – | > 1000 | –
COc1cc(Br)cc(OC[C@H]2CCCNC2)c1-c1cc(Nc2cnc(C#N)cn2)n[nH]1 [Example 41, (S)-5-((5-(4-bromo-2-methoxy-6-(piperidin-3-ylmethoxy)phenyl)-1H-pyrazol-3-yl)amino)pyrazine-2-carbonitrile] | 5.1 | 0.85 | 4.4 | –
Cc1cc(F)c(-c2cc(Nc3cnc(C#N)cn3)n[nH]2)c(OCC2CNC2)c1 [Example 61, 5-((5-(2-(azetidin-3-ylmethoxy)-6-fluoro-4-methylphenyl)-1H-pyrazol-3-yl)amino)pyrazine-2-carbonitrile] | 97 | – | 111 | –
N#Cc1cnc(Nc2cc(-c3c(F)cc(Cl)cc3OC[C@@H]3CNCCO3)[nH]n2)cn1 [Example 58, (S)-5-((5-(4-chloro-2-fluoro-6-(morpholin-2-ylmethoxy)phenyl)-1H-pyrazol-3-yl)amino)pyrazine-2-carbonitrile] | 913 | – | > 1000 | –
N#Cc1cnc(Nc2cc(-c3c(F)cc(Br)cc3OC[C@@H]3CNCCO3)[nH]n2)cn1 [Example 60, (S)-5-((5-(4-bromo-2-fluoro-6-(morpholin-2-ylmethoxy)phenyl)-1H-pyrazol-3-yl)amino)pyrazine-2-carbonitrile] | 554 | – | > 1000 | –
COc1cc(F)cc(OC[C@H]2CNCCS2)c1-c1cc(Nc2cnc(C#N)cn2)n[nH]1 [Example 77-B, (R)-5-((5-(4-fluoro-2-methoxy-6-(thiomorpholin-2-ylmethoxy)phenyl)-1H-pyrazol-3-yl)amino)pyrazine-2-carbonitrile] | 17.3 | – | 16.7 | –
COc1cc(C)cc(OCC2CNC2)c1-c1cc(Nc2cnc(C#N)cn2)n[nH]1 [Example 72, 5-((5-(2-(azetidin-3-ylmethoxy)-6-methoxy-4-methylphenyl)-1H-pyrazol-3-yl)amino)pyrazine-2-carbonitrile] | 6 | – | 5.7 | –
Cc1cc(F)c(-c2cc(Nc3cnc(C#N)cn3)n[nH]2)c(OC[C@@H]2CNCCO2)c1 [Example 64, (S)-5-((5-(2-fluoro-4-methyl-6-(morpholin-2-ylmethoxy)phenyl)-1H-pyrazol-3-yl)amino)pyrazine-2-carbonitrile] | 323 | – | 676 | –
COc1cccc(OC[C@H]2CCCNC2)c1-c1[nH]nc(Nc2cnc(C#N)cn2)c1C [Example 51, (S)-5-((5-(2-methoxy-6-(piperidin-3-ylmethoxy)phenyl)-4-methyl-1H-pyrazol-3-yl)amino)pyrazine-2-carbonitrile] | > 1000 | – | > 1000 | –

Source: patent US12492197B2, “3,5-disubstituted pyrazole compounds as kinase inhibitors and uses thereof” (IMPACT THERAPEUTICS (SHANGHAI), INC, priority 2019, dated 2025)
